From ChEMBL document CHEMBL1201862, “PubChem BioAssay data set” (2004)
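These data come from cells grown in 96-well plates and exposed to compound for 48 hours at five concentrations. At the GI50, growth is halved.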 Calls of active or inactive are those of the source. No stated cut-off is given here; in the data, active = GI50 up to about 1.1 µM and inactive = higher.

Columns and labels:
Assay in all cases: growth of human tumour cells (NCI), 48 h
Hs-578T = tested on: Hs-578T
DU-145 = tested on: DU-145
OVCAR-4 = tested on: OVCAR-4
SF-295 = tested on: SF-295
HCT-116 = tested on: HCT-116
COLO 205 = tested on: COLO 205
HT-29 = tested on: HT-29
NCI-H460 = tested on: NCI-H460
MDA-N = tested on: MDA-N
CAKI-1 = tested on: CAKI-1
OVCAR-3 = tested on: OVCAR-3
MDA-MB-231 = tested on: MDA-MB-231
RPMI-8226 = tested on: RPMI-8226
CCRF-CEM = tested on: CCRF-CEM
KM12 = tested on: KM12
MDA-MB-435 = tested on: MDA-MB-435
K562 = tested on: K562
U-251 = tested on: U-251
SN12C = tested on: SN12C
HCC 2998 = tested on: HCC 2998

Row | SMILES | GI50 (Hs-578T) | GI50 (DU-145) | GI50 (OVCAR-4) | GI50 (SF-295) | GI50 (HCT-116) | GI50 (COLO 205) | GI50 (HT-29) | GI50 (NCI-H460) | GI50 (MDA-N) | GI50 (CAKI-1) | GI50 (OVCAR-3) | GI50 (MDA-MB-231) | GI50 (RPMI-8226) | GI50 (CCRF-CEM) | GI50 (KM12) | GI50 (MDA-MB-435) | GI50 (K562) | GI50 (U-251) | GI50 (SN12C) | GI50 (HCC 2998)
1 | O=C1NC(=O)C(Cc2ccccc2)(c2cccnc2)N1 (stereo not given) | > 100 µM (inactive) | > 100 µM (inactive) | > 100 µM (inactive) | > 100 µM (inactive) | > 100 µM (inactive) | > 100 µM (inactive) | > 100 µM (inactive) | > 100 µM (inactive) | > 100 µM (inactive) | > 100 µM (inactive) | > 100 µM (inactive) | > 100 µM (inactive) | > 100 µM (inactive) | > 100 µM (inactive) | > 100 µM (inactive) | > 100 µM (inactive) | > 100 µM (inactive) | > 100 µM (inactive) | > 100 µM (inactive) | > 100 µM (inactive)
2 | CCN(Cc1cc(Cl)cc(C)c1O)Cc1c(O)ccc2ccccc12 | 15.9 µM (inactive) | 20.2 µM (inactive) | 17.1 µM (inactive) | 16.9 µM (inactive) | 16.7 µM (inactive) | 22.7 µM (inactive) | 12.9 µM (inactive) | 18.2 µM (inactive) | 18.1 µM (inactive) | 15.3 µM (inactive) | 15 µM (inactive) | 18.4 µM (inactive) | 17.4 µM (inactive) | 10.5 µM (inactive) | 17.3 µM (inactive) | 15.8 µM (inactive) | 19.1 µM (inactive) | 17.1 µM (inactive) | 18.2 µM (inactive) | 16.8 µM (inactive)
3 | NS(=O)(=O)c1ccc(Nc2c3ccccc3nc3c(C(=O)NCCO)cccc23)cc1 | 0.188 µM (active) | 0.165 µM (active) | 0.195 µM (active) | 0.191 µM (active) | 0.149 µM (active) | 0.0762 µM (active) | 0.16 µM (active) | 0.0439 µM (active) | 0.196 µM (active) | 0.198 µM (active) | 0.12 µM (active) | 0.184 µM (active) | 0.0676 µM (active) | 0.0335 µM (active) | 0.137 µM (active) | 0.203 µM (active) | 0.13 µM (active) | 0.0728 µM (active) | 0.176 µM (active) | 0.182 µM (active)
4 | COC(=O)Cc1ccc2c(cnn2-c2ccccc2)c1OC | > 10 µM (inactive) | > 10 µM (inactive) | > 10 µM (inactive) | > 10 µM (inactive) | > 10 µM (inactive) | > 10 µM (inactive) | > 10 µM (inactive) | > 10 µM (inactive) | > 10 µM (inactive) | > 10 µM (inactive) | > 10 µM (inactive) | > 10 µM (inactive) | > 10 µM (inactive) | > 10 µM (inactive) | > 10 µM (inactive) | > 10 µM (inactive) | > 10 µM (inactive) | > 10 µM (inactive) | > 10 µM (inactive) | > 10 µM (inactive)
5 | COc1ccc(/C=C2\CN(C)CC3C2=NC(=S)NC3c2ccc(OC)cc2)cc1 (stereo not given) | 52.7 µM (inactive) | 4.68 µM (inactive) | 4.92 µM (inactive) | 3.69 µM (inactive) | 3.43 µM (inactive) | 3.67 µM (inactive) | 3.51 µM (inactive) | 2.8 µM (inactive) | 1.08 µM (active) | 6.64 µM (inactive) | 1.98 µM (inactive) | 13.3 µM (inactive) | 2.99 µM (inactive) | 8.13 µM (inactive) | 2.97 µM (inactive) | 1.33 µM (inactive) | 3.95 µM (inactive) | 8.55 µM (inactive) | 6.81 µM (inactive) | 6.75 µM (inactive)
6 | COC(=O)[C@]1(NC(=O)c2ccccc2)C[C@H]1C=O | > 55.5 µM (inactive) | > 100 µM (inactive) | > 100 µM (inactive) | > 78.5 µM (inactive) | > 100 µM (inactive) | > 100 µM (inactive) | > 100 µM (inactive) | 15 µM (inactive) | > 100 µM (inactive) | > 100 µM (inactive) | > 100 µM (inactive) | > 100 µM (inactive) | > 100 µM (inactive) | 21.6 µM (inactive) | > 61.5 µM (inactive) | > 100 µM (inactive) | > 100 µM (inactive) | > 100 µM (inactive) | > 100 µM (inactive) | 57.7 µM (inactive)
7 | Cc1cc2c(cc1Cl)SC(NN(C)C)=NS2(=O)=O | > 10 µM (inactive) | > 10 µM (inactive) | > 10 µM (inactive) | > 10 µM (inactive) | > 10 µM (inactive) | > 10 µM (inactive) | > 10 µM (inactive) | > 10 µM (inactive) | > 10 µM (inactive) | > 10 µM (inactive) | > 10 µM (inactive) | > 10 µM (inactive) | > 10 µM (inactive) | > 10 µM (inactive) | > 10 µM (inactive) | > 10 µM (inactive) | > 10 µM (inactive) | > 10 µM (inactive) | > 10 µM (inactive) | > 10 µM (inactive)
8 | CCOC(=O)CN1CCNCCN(CC(=O)OCC)CCNCC1 | > 100 µM (inactive) | > 100 µM (inactive) | > 100 µM (inactive) | > 100 µM (inactive) | > 100 µM (inactive) | > 100 µM (inactive) | 55.3 µM (inactive) | 90.4 µM (inactive) | > 100 µM (inactive) | > 100 µM (inactive) | > 100 µM (inactive) | > 100 µM (inactive) | > 100 µM (inactive) | > 100 µM (inactive) | > 100 µM (inactive) | > 100 µM (inactive) | 80.5 µM (inactive) | > 100 µM (inactive) | > 100 µM (inactive) | > 100 µM (inactive)
9 | CCCCCCC(C)c1ccc2c(c1)C(=O)c1nc3ccncc3c(=O)n1-2 (stereo not given) | 9.62 µM (inactive) | 14.6 µM (inactive) | 1.66 µM (inactive) | 6.38 µM (inactive) | 2.5 µM (inactive) | 2.87 µM (inactive) | 2.1 µM (inactive) | 2.07 µM (inactive) | 0.237 µM (active) | 2.54 µM (inactive) | 1.45 µM (inactive) | 2.54 µM (inactive) | 1.15 µM (inactive) | 0.836 µM (active) | 1.79 µM (inactive) | 0.352 µM (active) | 0.419 µM (active) | 4.26 µM (inactive) | 4.33 µM (inactive) | 3.94 µM (inactive)
10 | COc1ccc(N2CCOCC2)cc1 | > 100 µM (inactive) | > 100 µM (inactive) | > 100 µM (inactive) | > 100 µM (inactive) | > 100 µM (inactive) | > 100 µM (inactive) | > 100 µM (inactive) | > 100 µM (inactive) | > 100 µM (inactive) | > 100 µM (inactive) | > 100 µM (inactive) | > 100 µM (inactive) | > 100 µM (inactive) | > 100 µM (inactive) | > 100 µM (inactive) | > 100 µM (inactive) | > 100 µM (inactive) | > 100 µM (inactive) | > 100 µM (inactive) | > 100 µM (inactive)
11 | COc1cc(/C=C2\N=C(c3ccccc3)N(c3nc4cc(C)c(C)cc4s3)C2=O)cc(OC)c1OC | 16.6 µM (inactive) | 45.4 µM (inactive) | 21.3 µM (inactive) | 27.9 µM (inactive) | 20.2 µM (inactive) | 27.5 µM (inactive) | 19 µM (inactive) | 29.2 µM (inactive) | 16.1 µM (inactive) | 35.1 µM (inactive) | 20 µM (inactive) | 43.6 µM (inactive) | 19.3 µM (inactive) | 7.41 µM (inactive) | 21.8 µM (inactive) | 12.9 µM (inactive) | 35.4 µM (inactive) | 21.8 µM (inactive) | 34.8 µM (inactive) | 20.9 µM (inactive)
12 | CCOC(=O)C(=O)/C(=C\NC(=S)Nc1ccccc1Cl)C(=O)OCC | > 100 µM (inactive) | > 100 µM (inactive) | > 100 µM (inactive) | > 100 µM (inactive) | > 100 µM (inactive) | > 100 µM (inactive) | > 100 µM (inactive) | > 100 µM (inactive) | > 100 µM (inactive) | > 100 µM (inactive) | > 100 µM (inactive) | > 100 µM (inactive) | > 100 µM (inactive) | > 100 µM (inactive) | > 100 µM (inactive) | > 100 µM (inactive) | > 100 µM (inactive) | > 100 µM (inactive) | > 100 µM (inactive) | > 100 µM (inactive)
13 | O=C1/C(=C/c2ccc(O)cc2)Oc2ccccc21 | > 100 µM (inactive) | > 100 µM (inactive) | 72.6 µM (inactive) | > 100 µM (inactive) | 98.4 µM (inactive) | > 100 µM (inactive) | > 100 µM (inactive) | > 100 µM (inactive) | > 100 µM (inactive) | > 100 µM (inactive) | > 100 µM (inactive) | > 100 µM (inactive) | 59.2 µM (inactive) | 32.2 µM (inactive) | 90.6 µM (inactive) | 83.9 µM (inactive) | 40.9 µM (inactive) | > 100 µM (inactive) | > 100 µM (inactive) | > 100 µM (inactive)
14 | c1csc(-c2nnc(C34CC5CC(CC(C5)C3)C4)o2)c1 | 31.6 µM (inactive) | 44.2 µM (inactive) | 34.2 µM (inactive) | 42.1 µM (inactive) | 32.2 µM (inactive) | 17.5 µM (inactive) | 19 µM (inactive) | 39.9 µM (inactive) | 37.7 µM (inactive) | 87.1 µM (inactive) | 13.6 µM (inactive) | 17.7 µM (inactive) | 36.2 µM (inactive) | 21.7 µM (inactive) | 52 µM (inactive) | 36.5 µM (inactive) | 34 µM (inactive) | 39.6 µM (inactive) | 38 µM (inactive) | 35.4 µM (inactive)
